From publication doi:10.1101/2025.03.26.645438v1 (bioRxiv, 2025)

Columns and labels:
[1] = tested on: diabetic db/db mouse model; assay: Acute glucose-lowering after single dose in db/db mice; format: in vivo
[2] = Pharmacokinetics; format: in vivo, rat; conditions: SD male rats, single dose 0.05 mg/kg, plasma, LC-MS/MS, WinNonlin, mean n=3
[3] = tested on: diet-induced obese (DIO) mice; assay: Weight loss in diet-induced obese; format: in vivo, mouse; conditions: 10 nmol/kg
[4] = tested on: diabetic db/db mouse model; assay: Long-term glucose-lowering after multiple doses; format: in vivo; conditions: db/db mice, kidney injury marker after multiple administration 10 nmol/kg

Semaglutide
time up to which the decrease of non-fasting blood glucose persisted ([1]; single dose 10 nmol/kg): 24 h
lowest non-fasting blood glucose level ([1]; single dose 10 nmol/kg subcutaneous, mean±SD, n=6, SD): 15.57 ± 5.16 mmol/L
acute glucose-lowering effect compared with model group ([1]; single dose 10 nmol/kg, non-fasting glucose 0-120 hours): comparable glucose-lowering effects
half-life (T1/2) [2]: 8.17 h
mean residence time (MRT0-t), 0-[…] [2]: 14.21 h
fat index ([3]; multiple administrations): reduced
body weight reduction ([3]; multiple administrations over 21 days, n=5): 21.54%
serum creatinine (Scr) [4]: significantly reduced
urinary albumin levels [4]: significantly reduced
